We go through 22 compounds from ChEMBL document CHEMBL5042509, “Benzophenone Glucosides and B-Type Proanthocyanidin Dimers from Zambian Cassia abbreviata and Their Trypanocidal Activities” (J Nat Prod, 2022).

The test system of assay [1] is Trypanosoma evansi. Nature of the assay: Trypanocidal activity against Trypanosoma evansi assessed as parasite growth inhibition at 50 ug/ml incubated for 3 days by Celltiter-Glo luminescence assay. Type of assay: functional. The note with it: dose 50 µg/ml; time 3 day. Set-up: scale not given: the % may be the effect or the level left.
Assay [2] deals with Trypanosoma brucei rhodesiense. Nature of the assay: Trypanocidal activity against Trypanosoma brucei rhodesiense IL1501 assessed as parasite growth inhibition at 50 ug/ml incubated for 3 days by Celltiter-Glo luminescence assay. Type of assay: functional. Set-up: scale not given: the % may be the effect or the level left. The note with it: dose 50 µg/ml; time 3 day.
For assay [3], the system named is Trypanosoma congolense. Description: Trypanocidal activity against Trypanosoma congolense IL3000 assessed as parasite growth inhibition at 50 ug/ml incubated for 3 days by Celltiter-Glo luminescence assay. The arrangement: scale not given: the % may be the effect or the level left. The note with it: dose 50 µg/ml; time 3 day. (In general: Cellular ATP, detected with luciferase, serves as a proxy for viable cell number.)

Assay [4] relates to Trypanosoma brucei brucei. Nature of the assay: Trypanocidal activity against Trypanosoma brucei brucei GUTat3.1 assessed as parasite growth inhibition at 50 ug/ml incubated for 3 days by Celltiter-Glo luminescence assay. It is filed as functional. The arrangement: scale not given: the % may be the effect or the level left. The note with it: dose 50 µg/ml; time 3 day.
The test system of assay [5] is Trypanosoma brucei gambiense. Description: Trypanocidal activity against Trypanosoma brucei gambiense IL1922 assessed as parasite growth inhibition at 50 ug/ml incubated for 3 days by Celltiter-Glo luminescence assay. It is filed as functional. Set-up: scale not given: the % may be the effect or the level left. The note with it: dose 50 µg/ml; time 3 day.
In assay [6] the test system is Trypanosoma brucei rhodesiense. Description: Trypanocidal activity against Trypanosoma brucei rhodesiense assessed as parasite growth inhibition at 50 ug/ml incubated for 3 days by Celltiter-Glo luminescence assay. Type of assay: functional. The arrangement: scale not given: the % may be the effect or the level left. As to conditions: dose 50 µg/ml; time 3 day.
For assay [7], the system named is Trypanosoma brucei rhodesiense. Nature of the assay: Trypanocidal activity against Trypanosoma brucei rhodesiense assessed as parasite growth inhibition incubated for 3 days by Celltiter-Glo luminescence assay. It is filed as functional, organism-based. As to conditions: 72 h.
The test system of assay [8] is Trypanosoma evansi. Description: Trypanocidal activity against Trypanosoma evansi assessed as parasite growth inhibition incubated for 3 days by Celltiter-Glo luminescence assay. Type of assay: functional, organism-based. As to conditions: 72 h.
In assay [9] the test system is Trypanosoma congolense. Nature of the assay: Trypanocidal activity against Trypanosoma congolense IL3000 assessed as parasite growth inhibition incubated for 3 days by Celltiter-Glo luminescence assay. The note with it: IL3000, 72 h.

As a reminder, the IC50 is the point on the concentration scale where inhibition reaches its midpoint.

Values after ≈ are worked out from the molar mass of the structure shown.

Consider `COc1ccc(O[C@@H]2O[C@H](CO)[C@@H](O)[C@H](O)[C@H]2O)cc1OC`, for which the Activity with Trypanosoma evansi [1] was determined as 0%; in assay [2], 0%; in the assay with Trypanosoma congolense [3] it was 0%; in assay [4], 0%; in assay [5] it was 0%; in assay [6] it was 8.9%.
Regarding `Oc1ccc([C@H]2Oc3cc(O)ccc3[C@H](c3c(O)cc(O)c4c3O[C@H](c3cc(O)c(O)c(O)c3)[C@H](O)C4)[C@@H]2O)cc1`, the IC50 in assay [7] was determined as 3.91 µg/mL (≈ 6.95 µM); in the assay on Trypanosoma evansi [8], 23.2 µg/mL (≈ 41.2 µM); in the assay on Trypanosoma congolense [9], 15.3 µg/mL (≈ 27.3 µM). The Activity in the assay on Trypanosoma evansi [1] came out at 99.69%; in assay [2] it was 13.65%; in the assay with Trypanosoma congolense [3] it was 99.67%; in assay [4], 0%; in [5], 26.1%; in [6], 99.9%.
For the compound `Cc1cc(O)c(C(=O)c2c(O)cccc2O[C@@H]2O[C@H](CO)[C@@H](O)[C@H](O)[C@H]2O)c(C(=O)O)c1`, the Activity with Trypanosoma evansi [1] worked out at 0%; in assay [2] it was 2.22%; in the assay on Trypanosoma congolense [3], 20.76%; in assay [4], 15.74%; in [5] it was 5.44%; in assay [6], 34.99%.
For the compound `Oc1ccc2c(c1)O[C@H](c1cc(O)c(O)c(O)c1)[C@@H](O)[C@H]2c1c(O)cc(O)c2c1O[C@H](c1ccc(O)c(O)c1)[C@H](O)C2`, the half-inhibitory concentration (IC50) in assay [7] was 5.42 µg/mL (≈ 9.37 µM); with Trypanosoma evansi [8], 5.51 µg/mL (≈ 9.52 µM); with Trypanosoma congolense [9], 7.15 µg/mL (≈ 12.4 µM). Further, the Activity was 100.24% in the assay with Trypanosoma evansi [1]; 60.48% in assay [2]; 100.13% in the assay on Trypanosoma congolense [3]; 44.09% in [4]; 83.48% in [5]; 100.09% in assay [6].
In the case of `COc1cc(O[C@@H]2O[C@H](CO)[C@@H](O)[C@H](O)[C@H]2O[C@@H]2O[C@@H](C)[C@H](OC(C)=O)[C@@H](OC(C)=O)[C@H]2OC(C)=O)cc(OC)c1OC`, the concentration for half-maximal inhibition (IC50) in assay [7] is 33.3 µg/mL (≈ 53.8 µM); in the assay on Trypanosoma congolense [9], 40.9 µg/mL (≈ 66.1 µM). For the same compound, the Activity amounted to 0% with Trypanosoma evansi [1]; 27.17% in assay [2]; 91.43% with Trypanosoma congolense [3]; 44.45% in [4]; 38.79% in assay [5]; 89.65% in assay [6].
`Oc1ccc([C@H]2Oc3cc(O)ccc3[C@@H](c3c(O)cc(O)c4c3O[C@H](c3cc(O)c(O)c(O)c3)[C@H](O)C4)[C@@H]2O)cc1`: the half-maximal inhibitory concentration (IC50) in assay [7] came to 4.13 µg/mL (≈ 7.34 µM); in the assay on Trypanosoma evansi [8], 3.32 µg/mL (≈ 5.9 µM); in the assay on Trypanosoma congolense [9], 5.32 µg/mL (≈ 9.46 µM). The Activity with Trypanosoma evansi [1] turned out to be 69.94%; in assay [2], 57.75%; in the assay with Trypanosoma congolense [3], 69.89%; in assay [4], 48.67%; in assay [5], 57.94%; in assay [6], 90.97%.
`COc1cc(O[C@@H]2O[C@H](CO)[C@@H](O)[C@H](O)[C@H]2O[C@@H]2O[C@@H](C)[C@H](O)[C@@H](O)[C@H]2O)cc(OC)c1OC`: the Activity in the assay with Trypanosoma evansi [1] is reported as 0%; in assay [2] it was 2.26%; in the assay with Trypanosoma congolense [3], 0%; in assay [4], 0.72%; in [5], 0.1%; in [6], 5.42%.
As for `Oc1ccc([C@H]2Oc3cc(O)ccc3[C@@H](c3c(O)cc(O)c4c3O[C@H](c3ccc(O)c(O)c3)[C@@H](O)C4)[C@@H]2O)cc1`, the Activity in the assay on Trypanosoma evansi [1] is listed as 0%; in [2] it was 6.96%; with Trypanosoma congolense [3], 20.82%; in assay [4], 20.95%; in assay [5], 6.42%; in assay [6], 88.52%.
Take `Oc1ccc([C@H]2Oc3cc(O)ccc3[C@H](c3c(O)cc(O)c4c3O[C@H](c3ccc(O)c(O)c3)[C@H](O)C4)[C@@H]2O)cc1`: the Activity in the assay with Trypanosoma evansi [1] was found to be 0%; in [2], 1.57%; in the assay with Trypanosoma congolense [3], 35.26%; in assay [4] it was 13.03%; in assay [5], 10.01%; in [6], 59.53%.
Regarding `COc1ccc(O[C@@H]2O[C@H](CO)[C@@H](O)[C@H](O)[C@H]2O[C@@H]2OC[C@](O)(CO)[C@H]2O)cc1OC`, the Activity with Trypanosoma evansi [1] is recorded as 0.6%; in [2], 0%; in the assay with Trypanosoma congolense [3], 0%; in [4], 0%; in assay [5] it was 0%; in assay [6] it was 2.69%.
For the compound `COc1cc(C(=O)O)cc(OC)c1O[C@@H]1O[C@H](CO)[C@@H](O)[C@H](O)[C@H]1O`, the Activity is recorded as 0% with Trypanosoma evansi [1]; 20.63% in [2]; 0% with Trypanosoma congolense [3]; 9.64% in assay [4]; 14.44% in [5]; 53.1% in assay [6].
Regarding `Cc1cc(O[C@@H]2O[C@H](CO)[C@@H](O)[C@H](O)[C@H]2O)c(C(=O)c2c(O)cccc2O)c(C(=O)O)c1`, the Activity in the assay on Trypanosoma evansi [1] was found to be 29.06%; in assay [2], 3.46%; in [4], 18.9%; in assay [5] it was 7.09%; in assay [6], 85.05%.
Consider `Oc1ccc2c(c1)O[C@H](c1ccc(O)c(O)c1)[C@@H](O)[C@@H]2c1c(O)cc(O)c2c1O[C@H](c1ccc(O)c(O)c1)[C@@H](O)C2`, for which the Activity in the assay on Trypanosoma evansi [1] amounted to 32.9%; in assay [2] it was 2.52%; in the assay on Trypanosoma congolense [3], 36.23%; in [4], 20.31%; in assay [5] it was 4.59%; in assay [6], 99.6%.
Turning to `Oc1ccc([C@H]2Oc3c(c(O)cc(O)c3[C@@H]3c4ccc(O)cc4O[C@H](c4ccc(O)c(O)c4)[C@H]3O)C[C@H]2O)cc1`, the Activity in the assay on Trypanosoma evansi [1] was 0%; in assay [2], 9.66%; in the assay with Trypanosoma congolense [3], 33.1%; in assay [4] it was 16.43%; in [5] it was 10.09%; in [6], 90.49%.
Regarding `Oc1ccc([C@H]2Oc3cc(O)ccc3[C@@H](c3c(O)cc(O)c4c3O[C@H](c3cc(O)c(O)c(O)c3)[C@@H](O)C4)[C@@H]2O)cc1`, the IC50 in [7] turned out to be 4.02 µg/mL (≈ 7.15 µM); in the assay on Trypanosoma evansi [8], 14.9 µg/mL (≈ 26.5 µM); with Trypanosoma congolense [9] it was 7.53 µg/mL (≈ 13.4 µM). Further, the Activity turned out to be 99.77% with Trypanosoma evansi [1]; 20.49% in assay [2]; 99.74% in the assay on Trypanosoma congolense [3]; 35.39% in assay [4]; 26.67% in assay [5]; 99.92% in assay [6].
In the case of `Oc1ccc2c(c1)O[C@H](c1ccc(O)c(O)c1)[C@@H](O)[C@H]2c1c(O)cc(O)c2c1O[C@H](c1ccc(O)c(O)c1)[C@H](O)C2`, the Activity with Trypanosoma evansi [1] is listed as 4.88%; in assay [2] it was 19.57%; in the assay with Trypanosoma congolense [3], 37.33%; in assay [4] it was 12.85%; in [5], 9.9%; in [6], 82.26%.
`COc1cc(O[C@@H]2O[C@H](CO)[C@@H](O)[C@H](O)[C@H]2O[C@@H]2OC[C@](O)(CO)[C@H]2O)cc(OC)c1OC`: the Activity in the assay with Trypanosoma evansi [1] is given as 0%; in assay [2], 0.73%; in the assay on Trypanosoma congolense [3], 0%; in [4] it was 0%; in assay [5], 0%; in [6] it was 60.74%.
As to `Oc1ccc2c(c1)O[C@H](c1ccc(O)c(O)c1)[C@@H](O)[C@H]2c1c(O)cc(O)c2c1O[C@H](c1cc(O)c(O)c(O)c1)[C@H](O)C2`, the IC50 in [7] was 6.79 µg/mL (≈ 11.7 µM); in the assay on Trypanosoma evansi [8], 6.52 µg/mL (≈ 11.3 µM); in the assay on Trypanosoma congolense [9] it was 9.26 µg/mL (≈ 16 µM). Further, the Activity came out at 100.12% with Trypanosoma evansi [1]; 42.7% in assay [2]; 99.96% with Trypanosoma congolense [3]; 26.31% in assay [4]; 73.09% in [5]; 100.02% in [6].
`Oc1cc(O)c2c(c1)O[C@H](c1ccc(O)c(O)c1)[C@H](O)C2` [(-)-EPICATECHIN]: the Activity came out at 54.44% in the assay with Trypanosoma evansi [1]; 8.81% in assay [2]; 13.33% in the assay on Trypanosoma congolense [3]; 29.77% in [4]; 11.49% in assay [5]; 74.01% in [6].
For `COc1cc(O)cc(OC)c1OC` [ANTIAROL], the IC50 in [7] was 24.9 µg/mL (≈ 135 µM). The Activity in the assay with Trypanosoma evansi [1] was 0%; in assay [2] it was 20.12%; in the assay on Trypanosoma congolense [3], 1.68%; in assay [4], 32.18%; in assay [5] it was 43.51%; in assay [6] it was 94.68%.
For `Oc1cc(O)c2c(c1)O[C@H](c1ccc(O)c(O)c1)[C@@H](O)C2` [CIANIDANOL], the results for the IC50 (in assay [7]; in the assay on Trypanosoma evansi [8]) were 47.6 µg/mL (≈ 164 µM) and 14.9 µg/mL (≈ 51.3 µM), respectively. Besides, the Activity in the assay with Trypanosoma evansi [1] is 66.43%; in assay [2] it was 2.35%; with Trypanosoma congolense [3], 22.03%; in assay [4], 22.82%; in [5], 9.71%; in [6], 100.03%.
In the case of `CC1CS(=O)(=O)CCN1/N=C/c1ccc([N+](=O)[O-])o1` (configuration not stated) [NIFURTIMOX], the figures for the IC50 (in assay [7]; in the assay with Trypanosoma congolense [9]) were 0.42 µg/mL (≈ 1.46 µM) and 0.3 µg/mL (≈ 1.04 µM), respectively.
